Assay results: patent US12377086B2, “Therapeutic methods, combinations and kits” (priority 2021, dated 2025)
Read-outs that look alike come from different tables or passages of the source.

Tests used:
VIM-2 [1] = molecular target: T1, VIM-2 (Pseudomonas aeruginosa, UniProt Q5U7L7); test: biochemical; settings: for VIM-2 percentage inhibition: 50 μM compound, 5 nM MBL, 10 μM nitrocefin, 30 mins
Description: (§1) The pET24a-VIM-2 plasmid was transformed into competent BL21 (DE3) E. coli cells. The cells were plated onto an LB-agar plate with kanamycin (25 μg/mL) and incubated overnight at 37° C. A single colony was used to inoculate 50 mL of LB, containing 25 μg/mL kanamycin, and the culture was shaken overnight at 37° C. From the overnight culture, 10 mL were transferred to 4×IL LB medium containing 25 μg/mL kanamycin. The cultures were grown at 37° C. until an optical density (OD600 nm) of 0.6-0.8 was reached, at which point protein production was induced with IPTG (0.5 mM) and ZnCl2 (100 μM). The temperature was reduced to 20° C., and the cells were shaken for an additional 18 h. The cultures were harvested by centrifugation (8 Kxg) for 10 min at 4° C. The resulting pellets were re-suspended in 25 mL of 50 mM HEPES, pH 7.5, containing 500 mM NaCl (buffer B). The cells were lysed with three passes through a French Press. The lysate was centrifuged (15 Kxg) for 30 min at 4° C. The supernatant was dialyzed against 2 L of 50 mM HEPES, pH 7.5 (buffer A), for 4 h. Buffer A was used to equilibrate a 25 mL Q-Sepharose column using an FPLC. The sample was loaded onto the column, and proteins were eluted with a linear gradient 0-500 mM NaCl with buffer B. Fractions containing VIM-2, determined by SDS-PAGE, were pooled and concentrated to 2-3 mL in an Amicon ultraconcentrator equipped YM-10 membrane. Further purification was conducted with a Sephacryl S-200 gel filtration column using 50 mM HEPES, pH 7.5, containing 150 mM NaCl. Fractions containing pure VIM-2 were pooled, and metal analysis was performed.
(§2) To identify potential MBL inhibitors, the relative change in the formation of hydrolyzed nitrocefin between treated and untreated MBL was determined as percentage inhibition. 5 nM of each BML was pre-incubated for 10 mins with 50 μM of each compound, followed by the addition of 10 μM nitrocefin.
(§3) Each MBL was incubated with 50 μM of each compound, followed by the addition of nitrocefin. The relative change in absorbance is reported as percentage inhibition.

VIM-2 [2] = molecular target: T1, VIM-2; test: biochemical; settings: for IC50: 5 nM MBL, 10 μM nitrocefin, read-out: VIM-2 IC50; for Ki: nitrocefin substrate, competitive-inhibition fit, read-out: VIM-2 Ki
Description: as §1, with “Further purification was conducted with a Sephacryl S-200 gel filtration column using 50 mM HEPES, pH 7.5, containing 150 mM NaCl.” left out
The enzyme inhibition constant (Ki) was derived from initial-velocity measurements by nonlinear regression using competitive-inhibition enzyme kinetics using Graphpad Prism 6.

VIM-2 expressing E. coli [3] = assay type: cell-based, Escherichia coli; settings: VIM-2 expressing E. coli, compound with amoxicillin
Description: (§4) The optical density of the cell cultured was monitored at 600 nm (OD600 nm). The cells were cultured on 0.8 g/100 ml nutrient agar plate at pH 7.0 and 37° C. […] An overnight culture of the bacterial strain was sub-cultured to 0.06 OD600 nm into the NB medium and was then seeded at max 200 μl into the wells of a 96 well microtiter plate. Samples were then incubated at 37° C. and shaken at 200 rpm for 18 h. The absorbance was measured on an ELIZA plate reader and analyzed with the Gen5™ software suite (version 1.08).
• The data are reported as relative percentage growth compared to untreated cells.

VIM-2 expressing E. coli [4] = assay type: cell-based, Escherichia coli
Description: as §4
The bacterial culture was prepared as described above. The diluted subculture bacteria in NB medium were set up to a final volume of 200 μl in clear flat-bottom 96-well plates containing ten different concentrations of each tested compound ranging from 0.001 μM to 50 μM. The mixing of the bacterial culture plate were then incubated in a 37° C. […] shaken incubator at 200 rpm for 18 h before measuring their optical density at 600 nm.

VIM-2 [5] = molecular target: T1, VIM-2; settings: after incubation with inhibitor and dialysis
Description: VIM-2 was diluted to 6 μM with 50 mM HEPES, pH 7.5, containing 150 mM NaCl. The diluted protein solution was used to make several 5 mL aliquots. […] One aliquot contained one molar equivalent of inhibitor (6 μM), with respect to enzyme concentration, and the second aliquot contained two molar equivalents (12 μM). One aliquot contained no inhibitor. Each aliquot was then incubated for 4 h at 4° C. Following incubation, each aliquot was dialyzed versus 500 mL of 50 mM HEPES, pH 7.5, for 4 h at 4° C. The aliquots were analyzed using ICP-AES, as previously described REF. The emission wavelengths used were 213.856, 238.892, 259.940, 231.604, and 324.754 nm for Zn, Co, Fe, Ni, and Cu, respectively.
To further address the mode of action of 8-hydroxyquinolines, equilibrium dialysis experiments were conducted. […] EDTA, a well-known metal scavenger, inhibits all MBLs through a chelation mechanism (Bush, K.; Jacoby, G. A. Updated Functional Classification of beta-Lactamases. Antimicrobial Agents and Chemotherapy 2010, 54, 969-976).

HEK293 cells = test: Human cell cytotoxicity assay (MTT); settings: 72 h
Description: (§5) Human embryonic kidney cell line (HEK293) were grown in 100 mm cell culture petri dishes at 37° C. with 5% CO2 in Dulbecco's Modified Eagle's Medium high glucose medium containing 1% penicillin/streptomycin (Sigma-Aldrich, St. Louis, MO) and supplemented with 5% of fetal bovine serum (Thermo Fisher Scientific Gibco®). Cells under 10 passages and the 80% of monitored cell petri dish were used for experiment.
(§6) Cytotoxicity of tested compounds were estimated using the MTT method. Cell viability were measured by counting viable cells by using the 3 (4,5dimethylthiazol-2-yl)-2,5-diphenyltetrazolium bromide (MTT) (Sigma-Aldrich, St. Louis, MO) colorimetric dye-reduction assay. […] Following 24 h incubation and attachment, the cells were incubated for 72 h with different concentrations of inhibitors (0.01˜100 μM) in culture media without FBS. The Control cells were supplemented only with a medium without containing FBS. All samples in 96 well plate were incubated at 37° C. at an atmosphere of 5% CO2. […] The absorbance was measured using a micro-plate reader at wavelength 590 nm. The CC50 were obtained based on a comparison with untreated cells by fitting the data to a sigmoidal dose-response equation using Graphpad Prism 6.

NDM-1 = NDM-1 (Klebsiella pneumoniae, UniProt C7C422); test: biochemical; settings: read-out: NDM-1 percentage inhibition, 50 μM compound, 5 nM MBL, 10 μM nitrocefin, 30 mins
Sequence of NDM-1 (C7C422 whole entry, looked up, species assumed): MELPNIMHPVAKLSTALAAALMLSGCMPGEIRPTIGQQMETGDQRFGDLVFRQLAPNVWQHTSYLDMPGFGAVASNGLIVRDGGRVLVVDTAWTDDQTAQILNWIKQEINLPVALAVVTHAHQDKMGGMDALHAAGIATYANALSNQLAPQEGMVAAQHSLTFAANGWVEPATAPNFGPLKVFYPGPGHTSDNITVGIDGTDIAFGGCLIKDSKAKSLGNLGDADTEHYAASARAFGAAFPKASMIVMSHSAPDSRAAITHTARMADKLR
Description: BL21 (DE3) E. coli cells containing the pET26b-ndm-1 plasmid were used to inoculate a 50 mL LB starter culture containing kanamycin (25 μg/mL). The culture was grown overnight at 37° C. The starter culture was then used to inoculate 4×1 L LB containing kanamycin (25 μg/mL). These flasks were incubated at 37° C. until culture reached an optical density of (OD600) of 0.6 to 0.8. The incubator was then set to 22° C. and the cultures were shaken for 30 min to allow them to cool. ZnCl2 ([…]) and IPTG (0.5 mM) were then added to the cultures and they were grown for 18 h at 22° C. The cells were then harvested using centrifugation (8000×g) for 10 min. The pellet was resuspended with 25 mL 50 mM HEPES, pH 7.5 containing 500 mM NaCl (Buffer B). Lysis was performed with three passes through a French Press. The lysate was centrifuged for 30 min (15,000×g) at 4° C. The supernatant was then dialyzed versus 2 L 50 mM HEPES, pH 7.5 (Buffer C) for 4 h. An FPLC was used to equilibrate a Q-Sepharose column using buffer C using a flowrate of 2.0 mL/min for 1.5 h. The lysate was then loaded onto the column and eluted with a linear NaCl gradient from 0-500 mM. Fractions containing NDM-1 were identified with SDS-PAGE. These fractions were pooled and concentrated to 2-3 mL in an Amicon ultracentrifugation concentrating unit with a YM-10 membrane. The resulting protein mixture was then loaded onto a Sephacryl S-200 gel filtration column run with 50 mM HEPES, pH 7.5 containing 150 mM NaCl (Buffer A). SDS-PAGE was used to identify fractions containing pure protein.
as §2, §3

in vitro [6] = settings: human, plasma
Description: The plasma stability assay was performed in triplicate by incubating the test compound in normal human plasma at 37° C. At 0, 1, 3, 6, and 24 h, aliquots of the plasma mixture were taken and quenched with 3 volumes of acetonitrile. The samples were then vortexed and centrifuged at 14,000 rpm for 3 min at 4° C. The supernatants were collected and analyzed by LC-MS/MS to determine the remaining percentage at various time points and to calculate plasma half-life (t1/2).

in vitro [7] = settings: human, microsomes, pH 7.4
Description: The in vitro microsomal stability assay was conducted in triplicate in human liver microsomal systems. In a typical incubation, the test compound was spiked into the reaction mixture containing 0.5 mg/mL of liver microsomal protein and 1 mM of NADPH in 0.1 M potassium phosphate buffer (pH 7.4) at 37° C. At various time points, 1 volume of reaction aliquot was taken and quenched with 3 volumes of acetonitrile. The samples were then vortexed and centrifuged at 14,000 rpm for 3 min at 4° C. The supernatants were collected and analyzed by LC-MS/MS to determine the in vitro metabolic half-life (t1/2) and intrinsic clearance (CLint).

in vitro [8] = settings: human, HEK293 cells
Description: as §5, §6

[9] = in the presence of 50 μM amoxicillin

SMILES	VIM-2 percentage inhibition (VIM-2 [1]) [%]	IC50 (VIM-2 [2]) [nM]	Ki (VIM-2 [2]) [nM]	synergistic growth inhibition (VIM-2 expressing E. coli [3])	EC50 (VIM-2 expressing E. coli [4]; [9]) [nM]	metal content of VIM-2 / removal of Zn(II) from the active site (VIM-2 [5])	CC50 (HEK293 cells) [nM]	inhibition at 50 µM (VIM-2 [1]; read-out: VIM-2 percentage inhibition, 50 μM compound, 5 nM MBL, 10 μM nitrocefin, 30 mins) [%]	inhibition at 50 µM (NDM-1) [%]	half-life (in vitro [6]) [h]	half-life (in vitro [7]) [h]	CC50 at 72 h (in vitro [8]) [nM]	EC50 (VIM-2 expressing E. coli [4]; 50 uM amoxicillin) [nM]
Oc1c(I)cc(Cl)c2cccnc12 [Compound 48, Clioquinol, reference compound]	93	5100	1100	over 96%	940	do not inhibit VIM-2 by removal of Zn(II)	18300						
O=C(O)c1ccc2cccnc2c1O [Compound 45, 8-hydroxyquinoline-7-carboxylic acid]				over 96%		do not inhibit VIM-2 by removal of Zn(II)		94	99	> 24	> 1	> 100000	
O=[N+]([O-])c1ccc(O)c2ncccc12 [Compound 41]	86	670	250		70		7800						70
